From patent publication US20260325540A1 (priority 2023, published 2026)

The molecules below were run against MERS-CoV 3CLpro (Middle East respiratory syndrome-related coronavirus, UniProt K9N638) (assay: biochemical). Settings: MERS IC50, 75 nM MERS-CoV 3CLpro, 6 μM peptide 1 substrate, 25° C., 1.5 hrs, pH 7.5.
MERS-CoV 3CLpro, sequence (K9N638 3248-3553 limits assumed): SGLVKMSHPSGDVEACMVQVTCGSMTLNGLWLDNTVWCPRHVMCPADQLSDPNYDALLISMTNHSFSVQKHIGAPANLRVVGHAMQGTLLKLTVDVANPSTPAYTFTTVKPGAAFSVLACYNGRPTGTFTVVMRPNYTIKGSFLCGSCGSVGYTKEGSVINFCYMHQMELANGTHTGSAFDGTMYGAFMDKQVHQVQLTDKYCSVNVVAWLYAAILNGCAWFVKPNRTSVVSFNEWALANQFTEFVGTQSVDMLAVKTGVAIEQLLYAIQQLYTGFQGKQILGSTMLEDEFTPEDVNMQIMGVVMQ

Row | SMILES | IC50 [nM]
1 | CC(C)(C)C(=O)N[C@H]1CCCC[C@H]2CNC(=O)[C@H]2C[C@@H](C#N)NC(=O)[C@@H]2CCCCN2C1=O [Example 71] | 1000 to 20000
2 | CC(C)C[C@@H]1NC(=O)CCCCCC[C@@H]2CNC(=O)[C@H]2C[C@@H](C=O)NC1=O [Example 47] | > 20000
3 | Cc1cc(C(=O)N[C@H]2CCCC[C@H]3CNC(=O)[C@H]3C[C@@H](C#N)NC(=O)[C@@H]3[C@@H]4[C@H](CN3C2=O)C4(C)C)on1 [Example 109] | < 100
4 | CC(C)(C)C[C@@H]1NC(=O)[C@@H](NC(=O)OC(C)(C)C)CCCC[C@H]2CNC(=O)[C@H]2C[C@@H](C#N)NC1=O [Example 60] | 100 to 1000
5 | CN1C(=O)[C@@H](NC(=O)C(C)(C)C)CCCC[C@H]2CNC(=O)[C@H]2C[C@@H](C#N)NC(=O)[C@@H]1CC(C)(C)C [Example 78] | 1000 to 20000
6 | CC1(C)[C@@H]2[C@H]3C(=O)N[C@H](C#N)C[C@@H]4C(=O)NC[C@@H]4CCCC[C@H](NC(=O)c4ccncn4)C(=O)N3C[C@@H]21 [Example 91] | < 100
7 | CC(C)(C)OC(=O)N[C@H]1CCCC[C@H]2CNC(=O)[C@H]2C[C@@H](C#N)NC(=O)[C@@H]2CCCCCN2C1=O [Example 143] | 100 to 1000
8 | CC1(C)[C@@H]2[C@H]3C(=O)N[C@H](C#N)C[C@@H]4C(=O)NCC[C@@H]4CCCC[C@H](NC(=O)OC4CCCC4)C(=O)N3C[C@@H]21 [Example 124] | < 100
9 | CC(C)C[C@@H]1NC(=O)[C@@H](Cc2ccccc2)CCC[C@H]2CNC(=O)[C@@H]2C[C@@H](C#N)NC1=O [Example 27] | 1000 to 20000
10 | CC(C)(C)OC(=O)N[C@H]1CC/C=C/[C@H]2CNC(=O)[C@H]2C[C@@H](C#N)NC(=O)[C@@H]2[C@H]3CCC[C@H]3CN2C1=O [Example 112] | 100 to 1000
11 | CC(C)(C)C(=O)N[C@H]1CCCC[C@H]2CNC(=O)[C@@H]2C[C@@H](C#N)NC(=O)[C@@H]2[C@@H]3[C@H](CN2C1=O)C3(C)C [Example 67] | 100 to 1000
12 | CC(C)(C)OC(=O)N[C@H]1CCCC[C@H]2CCNC(=O)[C@H]2C[C@@H](C#N)NC(=O)[C@@H]2[C@@H]3[C@H](CN2C1=O)C3(C)C [Example 110] | 100 to 1000
13 | CC(C)(C)OC(=O)N[C@H]1CCCC[C@H]2CNC(=O)[C@H]2C[C@@H](C#N)NC(=O)[C@@H]2[C@H]3CC[C@H](CC3)N2C1=O [Example 111] | 100 to 1000
14 | CC(C)(C)C[C@@H]1NC(=O)[C@@H](NC(=O)C(C)(C)C)CCCC[C@H]2CNC(=O)[C@H]2C[C@@H](C#N)NC1=O [Example 53] | 100 to 1000
15 | N#C[C@@H]1C[C@@H]2C(=O)NC[C@@H]2CCCC[C@H](NC(=O)C2(C(F)(F)F)CC2)C(=O)N2CCC3(CC3)C[C@H]2C(=O)N1 [Example 151] | 100 to 1000
16 | CC(C)(C)OC(=O)N[C@H]1CCCC[C@H]2CNC(=O)[C@H]2C[C@@H](C#N)NC(=O)[C@@H]2CC3(CC3)CN2C1=O [Example 105] | 100 to 1000
17 | CC(C)(C)OC(=O)N[C@H]1CC/C=C/[C@H]2CCNC(=O)[C@H]2C[C@@H](C#N)NC(=O)[C@@H]2[C@H]3CCC[C@H]3CN2C1=O [Example 99] | 1000 to 20000
18 | CC(C)(C)C(=O)N[C@H]1CCCC[C@H]2CCNC(=O)[C@@H]2C[C@@H](C#N)NC(=O)[C@@H]2[C@@H]3[C@H](CN2C1=O)C3(C)C [Example 65] | 100 to 1000
19 | CC(C)C[C@@H]1NC(=O)CCCCC[C@H]2CNC(=O)[C@@H]2C[C@@H](C=O)NC1=O [Example 32] | 100 to 1000
20 | CCO[C@@H]1C[C@H]2C(=O)N[C@H](C#N)C[C@@H]3C(=O)NC[C@@H]3CCCC[C@H](NC(=O)OC(C)(C)C)C(=O)N2C1 [Example 144] | 1000 to 20000
21 | CC(C)C[C@@H]1NC(=O)CCCCCC[C@H]2CNCC(=O)[C@@H]2C[C@@H](C=O)NC1=O [Example 52] | 1000 to 20000
22 | CC1(C)[C@@H]2[C@H]3C(=O)N[C@H](C#N)C[C@@H]4C(=O)NC[C@@H]4CCCC[C@H](NC(=O)C45CCC(C4)C5)C(=O)N3C[C@@H]21 [Example 148] | 100 to 1000
23 | CC1(C)[C@@H]2[C@H]3C(=O)N[C@H](C#N)C[C@@H]4C(=O)NC[C@@H]4CCCC[C@H](NS(=O)(=O)c4ccc(F)cc4F)C(=O)N3C[C@@H]21 [Example 157] | < 100
24 | CC(C)C[C@@H]1NC(=O)CCCCC[C@@H]2CCNC(=O)[C@H]2C[C@@H](C=O)NC1=O [Example 33] | > 20000

These molecules were tested against SARS-CoV-2 3CLpro (Severe acute respiratory syndrome coronavirus 2, UniProt P0DTD1) (assay: FRET based protease assay, SARS-CoV-2 3CL). Settings: not given.
Type: biochemical, SARS-CoV-2 (strain BetaCoV/Wuhan/WIV04/2019)

Row | SMILES | IC50 [nM]
25 | CC(C)(C)C(=O)N[C@H]1CCCC[C@H]2CNC(=O)[C@H]2C[C@@H](C#N)NC(=O)[C@@H]2CCCCN2C1=O [Example 71] | 1000 to 20000
26 | CC(C)C[C@@H]1NC(=O)CCCCCC[C@@H]2CNC(=O)[C@H]2C[C@@H](C=O)NC1=O [Example 47] | 1000 to 20000
27 | Cc1cc(C(=O)N[C@H]2CCCC[C@H]3CNC(=O)[C@H]3C[C@@H](C#N)NC(=O)[C@@H]3[C@@H]4[C@H](CN3C2=O)C4(C)C)on1 [Example 109] | < 100
28 | CC(C)(C)C[C@@H]1NC(=O)[C@@H](NC(=O)OC(C)(C)C)CCCC[C@H]2CNC(=O)[C@H]2C[C@@H](C#N)NC1=O [Example 60] | < 100
29 | CN1C(=O)[C@@H](NC(=O)C(C)(C)C)CCCC[C@H]2CNC(=O)[C@H]2C[C@@H](C#N)NC(=O)[C@@H]1CC(C)(C)C [Example 78] | < 100
30 | CC1(C)[C@@H]2[C@H]3C(=O)N[C@H](C#N)C[C@@H]4C(=O)NC[C@@H]4CCCC[C@H](NC(=O)c4ccncn4)C(=O)N3C[C@@H]21 [Example 91] | < 100
31 | CC(C)(C)OC(=O)N[C@H]1CCCC[C@H]2CNC(=O)[C@H]2C[C@@H](C#N)NC(=O)[C@@H]2CCCCCN2C1=O [Example 143] | 100 to 1000
32 | CC1(C)[C@@H]2[C@H]3C(=O)N[C@H](C#N)C[C@@H]4C(=O)NCC[C@@H]4CCCC[C@H](NC(=O)OC4CCCC4)C(=O)N3C[C@@H]21 [Example 124] | < 100
33 | CC(C)C[C@@H]1NC(=O)[C@@H](Cc2ccccc2)CCC[C@H]2CNC(=O)[C@@H]2C[C@@H](C#N)NC1=O [Example 27] | 1000 to 20000
34 | CC(C)(C)OC(=O)N[C@H]1CC/C=C/[C@H]2CNC(=O)[C@H]2C[C@@H](C#N)NC(=O)[C@@H]2[C@H]3CCC[C@H]3CN2C1=O [Example 112] | < 100
35 | CC(C)(C)C(=O)N[C@H]1CCCC[C@H]2CNC(=O)[C@@H]2C[C@@H](C#N)NC(=O)[C@@H]2[C@@H]3[C@H](CN2C1=O)C3(C)C [Example 67] | 100 to 1000
36 | CC(C)(C)OC(=O)N[C@H]1CCCC[C@H]2CCNC(=O)[C@H]2C[C@@H](C#N)NC(=O)[C@@H]2[C@@H]3[C@H](CN2C1=O)C3(C)C [Example 110] | < 100
37 | CC(C)(C)OC(=O)N[C@H]1CCCC[C@H]2CNC(=O)[C@H]2C[C@@H](C#N)NC(=O)[C@@H]2[C@H]3CC[C@H](CC3)N2C1=O [Example 111] | 100 to 1000
38 | CC(C)(C)C[C@@H]1NC(=O)[C@@H](NC(=O)C(C)(C)C)CCCC[C@H]2CNC(=O)[C@H]2C[C@@H](C#N)NC1=O [Example 53] | < 100
39 | N#C[C@@H]1C[C@@H]2C(=O)NC[C@@H]2CCCC[C@H](NC(=O)C2(C(F)(F)F)CC2)C(=O)N2CCC3(CC3)C[C@H]2C(=O)N1 [Example 151] | < 100
40 | CC(C)(C)OC(=O)N[C@H]1CCCC[C@H]2CNC(=O)[C@H]2C[C@@H](C#N)NC(=O)[C@@H]2CC3(CC3)CN2C1=O [Example 105] | 100 to 1000
41 | CC(C)(C)OC(=O)N[C@H]1CC/C=C/[C@H]2CCNC(=O)[C@H]2C[C@@H](C#N)NC(=O)[C@@H]2[C@H]3CCC[C@H]3CN2C1=O [Example 99] | 100 to 1000
42 | CC(C)(C)C(=O)N[C@H]1CCCC[C@H]2CCNC(=O)[C@@H]2C[C@@H](C#N)NC(=O)[C@@H]2[C@@H]3[C@H](CN2C1=O)C3(C)C [Example 65] | < 100
43 | CC(C)C[C@@H]1NC(=O)CCCCC[C@H]2CNC(=O)[C@@H]2C[C@@H](C=O)NC1=O [Example 32] | 100 to 1000
44 | CCO[C@@H]1C[C@H]2C(=O)N[C@H](C#N)C[C@@H]3C(=O)NC[C@@H]3CCCC[C@H](NC(=O)OC(C)(C)C)C(=O)N2C1 [Example 144] | < 100
45 | CC(C)C[C@@H]1NC(=O)CCCCCC[C@H]2CNCC(=O)[C@@H]2C[C@@H](C=O)NC1=O [Example 52] | 100 to 1000
46 | CC1(C)[C@@H]2[C@H]3C(=O)N[C@H](C#N)C[C@@H]4C(=O)NC[C@@H]4CCCC[C@H](NC(=O)C45CCC(C4)C5)C(=O)N3C[C@@H]21 [Example 148] | < 100
47 | CC1(C)[C@@H]2[C@H]3C(=O)N[C@H](C#N)C[C@@H]4C(=O)NC[C@@H]4CCCC[C@H](NS(=O)(=O)c4ccc(F)cc4F)C(=O)N3C[C@@H]21 [Example 157] | < 100
48 | CC(C)C[C@@H]1NC(=O)CCCCC[C@@H]2CCNC(=O)[C@H]2C[C@@H](C=O)NC1=O [Example 33] | > 20000
